The supplement of paper PMC11061612

Key:
Test in all cases: combination Emax (second highest fraction inhibited in the dose matrix, 72 h); higher = more inhibition; extreme values may be limits of the assay
[1] = test system: KYAE-1 (Esophageal Adenocarcinoma)
Summary of the method: (§1)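 After 24 hours at 37°C and 5% CO2 in 1536-well plates, cells in DMEM/F12 or RPMI plus 10% FBS received two-drug dose matrices for 72 hours. Viability came from CellTiter-Glo 2.0 luminescence and was scaled as inhibition, anchored at 0 by vehicle wells and at 1 by blank wells. Combination Emax is taken as the second-highest inhibition in the matrix, and Bliss excess as the observed combination effect less EA + EB − EA·EB, with EA and EB the single-agent effects.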

[2] = test system: YAPC (Pancreatic Carcinoma)
Summary of the method: as §1

[3] = test system: HH (T-Cell Non-Hodgkin's Lymphoma)
Summary of the method: as §1

[4] = test system: SNU-449 (Hepatocellular Carcinoma)
Summary of the method: as §1

[5] = test system: LS-123 (Colorectal Carcinoma)
Summary of the method: as §1

GAMG (Glioblastoma) = test system: GAMG (Glioblastoma)
Summary of the method: as §1

[6] = test system: SW1710 (Bladder Carcinoma)
Summary of the method: as §1

[7] = test system: WSU-NHL (B-Cell Non-Hodgkin's Lymphoma)
Summary of the method: as §1

MPP-89 (Mesothelioma) = test system: MPP-89 (Mesothelioma)
Summary of the method: as §1

KS-1 (Glioblastoma) = test system: KS-1 (Glioblastoma)
Summary of the method: as §1

LOXIMVI (Melanoma) = test system: LOXIMVI (Melanoma)
Summary of the method: as §1

[8] = test system: BE-13 (T-Lymphoblastic Leukemia)
Summary of the method: as §1

Row | SMILES | combination Emax [1] | combination Emax [2] | combination Emax [3] | combination Emax [4] | combination Emax [5] | combination Emax (GAMG (Glioblastoma)) | combination Emax [6] | combination Emax [7] | combination Emax (MPP-89 (Mesothelioma)) | combination Emax (KS-1 (Glioblastoma)) | combination Emax (LOXIMVI (Melanoma)) | combination Emax [8]
1 | C[C@@H](Oc1cc(-c2cnn(C3CCNCC3)c2)cnc1N)c1c(Cl)ccc(F)c1Cl [Crizotinib] + CC1=C(C(=CC=C1)Cl)NC(=O)C2=CN=C(S2)NC3=CC(=NC(=N3)C)N4CCN(CC4)CCO [Dasatinib] (first compound max 10 µM, 7x7, partner max 2 µM) | 0.169 | 0.694 | 0.203 | 0.831 | 0.967 | 0.929 | 0.944 | 0.994 | 0.914 | 0.848 | 0.972 | 0.943
2 | Cc1c2c(nn1C)CSCc1cc(n(C)n1)CSc1cc(c3ccccc3c1)OCCCc1c(C(=O)O)n(C)c3c-2c(Cl)ccc13 [AZD5991] + CS(=O)(=O)CCNCc1ccc(-c2ccc3ncnc(Nc4ccc(OCc5cccc(F)c5)c(Cl)c4)c3c2)o1 [Lapatinib] (first compound max 1 µM, 7x7, partner max 10 µM) | 0.84 | 0.186 | 0.868 | 0.547 | 0.394 | 0.507 | 0.185 | 0.909 | 0.312 | 0.147 | 0.535 | 0.936
3 | C=CCn1c(=O)c2cnc(Nc3ccc(N4CCN(C)CC4)cc3)nc2n1-c1cccc(C(C)(C)O)n1 [AZD1775] + Nc1ccn([C@@H]2O[C@H](CO)[C@@H](O)C2(F)F)c(=O)n1 [Gemcitabine] (first compound max 1 µM, partner max 0.3 µM) | 0.316 | 0.643 | 0.574 | 0.426 | 0.68 | 0.805 | 0.755 | 0.987 | 0.599 | 0.5 | 0.797 | 1
4 | C=CCn1c(=O)c2cnc(Nc3ccc(N4CCN(C)CC4)cc3)nc2n1-c1cccc(C(C)(C)O)n1 [AZD1775] + CCc1c2c(nc3ccc(O)cc13)-c1cc3c(c(=O)n1C2)COC(=O)[C@]3(O)CC [SN-38] (first compound max 1 µM, partner max 0.3 µM) | 0.267 | 0.722 | 0.567 | 0.61 | 0.828 | 0.916 | 0.533 | 0.999 | 0.769 | 0.52 | 0.863 | 1
5 | O=C(c1cc(Cc2n[nH]c(=O)c3ccccc23)ccc1F)N1CCN(C(=O)C2CC2)CC1 [Olaparib] + COc1nnc2ccc(N3CCC(c4ccc(OCCN5CCN(C)C(=O)[C@H]5C)cc4)CC3)nn12 [AZD5153] (first compound max 10 µM, 7x7, partner max 1 µM) | 0.156 | 0.267 | 0.382 | 0.208 | 0.359 | 0.448 | 0.379 | 0.929 | 0.393 | 0.582 | 0.864 | 0.648
6 | Cc1nc(-c2cn3c(n2)-c2ccc(-c4cnn(C(C)(C)C(N)=O)c4)cc2OCC3)n(C(C)C)n1 [Taselisib] + O=C(Nc1ccc2[nH]nc(-c3ccncc3)c2c1)[C@@H]1CCN(CC(=O)N2CCN(c3ccc(-c4ncccn4)cc3)CC2)C1 [SCH772984] (first compound max 10 µM, 7x7, partner max 5 µM) | 0.408 | 0.701 | 0.393 | 0.445 | 0.889 | 0.78 | 0.422 | 0.97 | 0.688 | 0.677 | 1 | 0.373
7 | O=C(c1cc(Cc2n[nH]c(=O)c3ccccc23)ccc1F)N1CCN(C(=O)C2CC2)CC1 [Olaparib] + Cc1c2c(nn1C)CSCc1cc(n(C)n1)CSc1cc(c3ccccc3c1)OCCCc1c(C(=O)O)n(C)c3c-2c(Cl)ccc13 [AZD5991] (first compound max 10 µM, 7x7, partner max 1 µM) | 0.231 | 0.104 | 0.809 | 0.0781 | 0.127 | 0.0955 | 0.119 | 0.797 | 0.0575 | 0.0895 | 0.311 | 0.498
8 | CS(=O)(=O)CCNCc1ccc(-c2ccc3ncnc(Nc4ccc(OCc5cccc(F)c5)c(Cl)c4)c3c2)o1 [Lapatinib] + Cn1cnc2c(F)c(Nc3ccc(Br)cc3Cl)c(C(=O)NOCCO)cc21 [Selumetinib] (first compound max 10 µM, 7x7, partner max 10 µM) | 0.83 | 0.386 | 0.211 | 0.514 | 0.677 | 0.644 | 0.317 | 0.788 | 0.42 | 0.342 | 0.717 | 0.887
9 | CC1(C)CCC(CN2CCN(c3ccc(C(=O)NS(=O)(=O)c4ccc(NCC5CCOCC5)c([N+](=O)[O-])c4)c(Oc4cnc5[nH]ccc5c4)c3)CC2)=C(c2ccc(Cl)cc2)C1 [Venetoclax] + CS(=O)(=O)CCNCc1ccc(-c2ccc3ncnc(Nc4ccc(OCc5cccc(F)c5)c(Cl)c4)c3c2)o1 [Lapatinib] (first compound max 1 µM, 7x7, partner max 10 µM) | 0.758 | 0.129 | 0.129 | 0.445 | 0.267 | 0.284 | 0.18 | 0.798 | 0.136 | 0.089 | 0.426 | 0.854
10 | Cc1c2c(nn1C)CSCc1cc(n(C)n1)CSc1cc(c3ccccc3c1)OCCCc1c(C(=O)O)n(C)c3c-2c(Cl)ccc13 [AZD5991] + Nc1ccn([C@@H]2O[C@H](CO)[C@@H](O)C2(F)F)c(=O)n1 [Gemcitabine] (first compound max 1 µM, 7x7, partner max 0.3 µM) | 0.127 | 0.575 | 0.879 | 0.316 | 0.404 | 0.662 | 0.397 | 0.967 | 0.428 | 0.288 | 0.835 | 0.923
11 | O=C(c1cc(Cc2n[nH]c(=O)c3ccccc23)ccc1F)N1CCN(C(=O)C2CC2)CC1 [Olaparib] + CN(CC[C@H](CSC1=CC=CC=C1)NC2=C(C=C(C=C2)S(=O)(=O)NC(=O)C3=CC=C(C=C3)N4CCC(CC4)[C@H](C5=CC=CC=C5C6=CC=C(C=C6)Cl)O)S(=O)(=O)C(F)(F)F)CCO [AZD4320] (first compound max 10 µM, 7x7, partner max 1 µM) | 0.587 | 0.11 | 0.21 | 0.11 | 0.512 | 0.223 | 0.265 | 0.674 | 0.138 | 0.2 | 0.447 | 0.983
12 | C[C@@H]1COCCN1c1cc(C2([S@](C)(=N)=O)CC2)nc(-c2ccnc3[nH]ccc23)n1 [AZD6738] + C1CC(C1)(C(=O)[O-])C(=O)[O-].N.N.[Pt+2] [Carboplatin] (first compound max 10 µM, 7x7, partner max 10 µM) | 0.0812 | 0.369 | 0.22 | 0.227 | 0.626 | 0.611 | 0.429 | 0.849 | 0.42 | 0.431 | 0.619 | 0.737
13 | C[C@@H]1COCCN1c1cc(C2([S@](C)(=N)=O)CC2)nc(-c2ccnc3[nH]ccc23)n1 [AZD6738] + Nc1ccn([C@@H]2O[C@H](CO)[C@@H](O)C2(F)F)c(=O)n1 [Gemcitabine] (first compound max 10 µM, 7x7, partner max 0.3 µM) | 0.0714 | 0.725 | 0.716 | 0.557 | 0.705 | 0.87 | 0.655 | 0.993 | 0.63 |  | 0.92 | 1
14 | C[C@@H](Oc1cc(-c2cnn(C3CCNCC3)c2)cnc1N)c1c(Cl)ccc(F)c1Cl [Crizotinib] + Cn1cnc2c(F)c(Nc3ccc(Br)cc3Cl)c(C(=O)NOCCO)cc21 [Selumetinib] (first compound max 10 µM, 7x7, partner max 10 µM) | 0.0881 | 0.526 | 0.0931 | 0.455 | 0.62 | 0.54 | 0.381 | 0.98 | 0.37 | 0.646 | 0.926 | 0.974
15 | O=C(c1cc(Cc2n[nH]c(=O)c3ccccc23)ccc1F)N1CCN(C(=O)C2CC2)CC1 [Olaparib] + CC1(C)CCC(CN2CCN(c3ccc(C(=O)NS(=O)(=O)c4ccc(NCC5CCOCC5)c([N+](=O)[O-])c4)c(Oc4cnc5[nH]ccc5c4)c3)CC2)=C(c2ccc(Cl)cc2)C1 [Venetoclax] (first compound max 10 µM, 7x7, partner max 1 µM) | 0.154 | 0.081 | 0.165 | 0.0891 | 0.191 | 0.0955 | 0.114 | 0.575 | 0.0498 | 0.0863 | 0.352 | 0.315
